Series [1] addresses T1, S1S3 (Homo sapiens, UniProt Q3T906, H959F).
T1 construct: gene GNPTAB; soluble truncation, no TM domains; S1 (233 aa) replaced by 29-aa Dictyostelium discoideum PTase linker; Notch1 to S1P site deleted, GGSGG linker; melittin signal, N-HA, C-HPC4; secreted from T. ni cells; single chain, dimer
Kind of series: PTase activity assay, UDP-[3H]GlcNAc. The series is classed as biochemical. The conditions noted are these: H279 = H959 of full-length hPTase.

Series [2] deals with T2, hPTase-αβ (soluble full-length human GlcNAc-1-phosphotransferase) (Homo sapiens, UniProt Q3T906).
T2 construct: gene GNPTAB; soluble secreted form of the alpha/beta precursor, cut by site-1 protease at K928/D929; no gamma subunit; dimer
T2 sequence (Q3T906 44-928 limits assumed): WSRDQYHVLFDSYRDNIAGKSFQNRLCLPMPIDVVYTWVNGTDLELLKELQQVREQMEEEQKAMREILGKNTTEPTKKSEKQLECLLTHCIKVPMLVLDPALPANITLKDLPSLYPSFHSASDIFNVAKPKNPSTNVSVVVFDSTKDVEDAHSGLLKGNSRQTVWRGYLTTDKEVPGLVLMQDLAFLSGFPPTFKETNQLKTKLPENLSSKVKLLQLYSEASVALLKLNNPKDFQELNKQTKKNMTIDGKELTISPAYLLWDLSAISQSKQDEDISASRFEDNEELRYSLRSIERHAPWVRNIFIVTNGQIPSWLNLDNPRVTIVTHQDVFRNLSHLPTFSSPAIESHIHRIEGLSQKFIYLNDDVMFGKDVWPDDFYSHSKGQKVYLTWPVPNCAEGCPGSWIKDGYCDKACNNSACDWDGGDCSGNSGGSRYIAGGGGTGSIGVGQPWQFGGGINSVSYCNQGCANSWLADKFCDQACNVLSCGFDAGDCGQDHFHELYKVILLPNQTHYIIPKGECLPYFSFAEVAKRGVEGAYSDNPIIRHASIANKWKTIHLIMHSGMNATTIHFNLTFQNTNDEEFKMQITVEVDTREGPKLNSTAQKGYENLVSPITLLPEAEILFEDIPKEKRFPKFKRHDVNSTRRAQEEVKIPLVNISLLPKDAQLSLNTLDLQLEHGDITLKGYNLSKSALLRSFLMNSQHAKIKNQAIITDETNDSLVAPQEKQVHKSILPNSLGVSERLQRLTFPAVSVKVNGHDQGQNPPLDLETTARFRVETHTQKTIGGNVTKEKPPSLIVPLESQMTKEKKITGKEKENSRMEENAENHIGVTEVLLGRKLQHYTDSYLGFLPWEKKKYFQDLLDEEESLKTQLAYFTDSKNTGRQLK
T2 sequence (Q3T906 929-1214 limits assumed): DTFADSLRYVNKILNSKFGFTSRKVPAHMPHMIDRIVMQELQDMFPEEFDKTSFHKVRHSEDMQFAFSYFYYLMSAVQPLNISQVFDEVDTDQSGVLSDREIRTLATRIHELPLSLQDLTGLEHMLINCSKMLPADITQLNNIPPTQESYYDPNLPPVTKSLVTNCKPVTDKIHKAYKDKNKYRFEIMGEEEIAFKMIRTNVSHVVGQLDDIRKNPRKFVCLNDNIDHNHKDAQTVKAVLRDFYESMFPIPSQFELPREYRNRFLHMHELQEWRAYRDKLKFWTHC
As to the kind of experiment: cryo-EM structure, […] Å. In kind it is binding. The conditions noted are these: 10 mM UDP-GlcNAc, 10 mM MnCl2, 6 h at 4 °C; donor site in the catalytic pocket with two Mn2+.

The target in a further series is T3, Dm PTase (Drosophila melanogaster, UniProt A1Z7S7).
T3 construct: gene Gnptab; soluble, without N- and C-terminal TM domains and cytosolic tails; melittin signal, N-HA, C-HPC4; secreted from T. ni cells; single chain; H375 and F378 correspond to human H956 and H959
T3 sequence (A1Z7S7 47-630 limits assumed): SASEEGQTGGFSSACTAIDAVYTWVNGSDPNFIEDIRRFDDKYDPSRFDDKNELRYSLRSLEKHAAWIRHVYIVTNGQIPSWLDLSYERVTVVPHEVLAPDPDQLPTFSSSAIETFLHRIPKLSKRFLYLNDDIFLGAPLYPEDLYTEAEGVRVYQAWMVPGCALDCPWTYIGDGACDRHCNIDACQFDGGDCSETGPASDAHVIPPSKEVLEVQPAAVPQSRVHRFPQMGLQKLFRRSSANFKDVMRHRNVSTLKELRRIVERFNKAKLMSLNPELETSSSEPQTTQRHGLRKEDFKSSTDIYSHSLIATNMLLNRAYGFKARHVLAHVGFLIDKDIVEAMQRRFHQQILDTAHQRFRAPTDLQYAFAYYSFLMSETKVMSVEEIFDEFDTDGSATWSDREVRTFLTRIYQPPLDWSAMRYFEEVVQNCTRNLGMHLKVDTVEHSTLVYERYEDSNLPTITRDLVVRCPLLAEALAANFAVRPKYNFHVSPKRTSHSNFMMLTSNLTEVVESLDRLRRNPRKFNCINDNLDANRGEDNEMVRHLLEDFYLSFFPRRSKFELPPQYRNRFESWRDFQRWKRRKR
Kind of series: PTase activity assay, UDP-[3H]GlcNAc. The series is classed as biochemical. The conditions noted are these: donor, labelled compound; acceptor 100 mM α-MM.

The target in series [3] is T4, S1S3 (Homo sapiens, UniProt Q3T906).
T4 construct: gene GNPTAB; soluble truncation, no TM domains; S1 (233 aa) replaced by 29-aa Dictyostelium discoideum PTase linker; Notch1 to S1P site deleted, GGSGG linker; melittin signal, N-HA, C-HPC4; secreted from T. ni cells; single chain, dimer
As to the kind of experiment: UDP-[3H]GlcNAc radiolabel transfer assay, QAE-Sephadex. The conditions noted are these: saturating UDP-[3H]GlcNAc; Mn2+ and Mg2+, pH 7.4, 37 °C (general assay); mean of two assays. The series is classed as biochemical.

Series [4] has as its target soluble S1S3, truncated hyperactive variant of human GlcNAc-1-phosphotransferase (PTase) αβ lacking both transmembrane domains and cytosolic tails (human | Dictyostelium discoideum). As to the kind of experiment: cryo-EM structure; single-particle cryo-EM of purified soluble S1S3 at 0.8 mg/ml; 3.4 Å.
Substrate in series [5]: CO[C@H]1O[C@H](CO)[C@@H](O)[C@H](O)[C@@H]1O
As to the kind of experiment: UDP-[3H]GlcNAc radiolabel transfer assay, QAE-Sephadex. The series is classed as biochemical, Homo sapiens. The conditions noted are these: saturating UDP-[3H]GlcNAc, Mn2+ and Mg2+, pH 7.4, 37 °C (general assay), mean of two assays.

T1 sequence (Q3T906 929-1214 H959F limits assumed, one chain of several): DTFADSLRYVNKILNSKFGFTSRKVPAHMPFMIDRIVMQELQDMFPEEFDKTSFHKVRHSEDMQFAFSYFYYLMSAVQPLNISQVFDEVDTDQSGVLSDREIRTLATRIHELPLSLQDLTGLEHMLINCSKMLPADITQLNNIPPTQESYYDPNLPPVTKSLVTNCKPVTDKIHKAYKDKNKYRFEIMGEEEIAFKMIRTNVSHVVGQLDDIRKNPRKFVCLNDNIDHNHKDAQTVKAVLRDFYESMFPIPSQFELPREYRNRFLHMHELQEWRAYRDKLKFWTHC

As to `CC(=O)N[C@H]1[C@H](O[C@H]2[C@H](O)[C@@H](NC(C)=O)C(O)O[C@@H]2CO)O[C@H](CO)[C@@H](O[C@@H]2O[C@H](CO[C@H]3O[C@H](CO[C@H]4O[C@H](CO)[C@@H](O)[C@H](O)[C@@H]4O[C@H]4O[C@H](CO)[C@@H](O)[C@H](O)[C@@H]4O)[C@@H](O)[C@H](O[C@H]4O[C@H](CO)[C@@H](O)[C@H](O)[C@@H]4O[C@H]4O[C@H](CO)[C@@H](O)[C@H](O)[C@@H]4O)[C@@H]3O)[C@@H](O)[C@H](O[C@H]3O[C@H](CO)[C@@H](O)[C@H](O)[C@@H]3O[C@H]3O[C@H](CO)[C@@H](O)[C@H](O)[C@@H]3O[C@H]3O[C@H](CO)[C@@H](O)[C@H](O)[C@@H]3O)[C@@H]2O)[C@@H]1O` (some centres unmarked) [Man-9, Man9GlcNAc2], the “PTase activity assay, UDP-[3H]GlcNAc” value at S1S3 [1] (0.34 mM Man-9) is reported as “The His-279-Phe mutation caused a significant decrease in activity toward the three acceptors”.

For the molecule `CC(=O)N[C@H]1[C@@H](OP(=O)(O)OP(=O)(O)OC[C@H]2O[C@@H](n3ccc(=O)[nH]c3=O)[C@H](O)[C@@H]2O)O[C@H](CO)[C@@H](O)[C@@H]1O` [UDP-GlcNAc], the “cryo-EM structure, 2.9 Å” value in series [2] is listed as “we resolved the cryo-EM structure of hPTase in the presence of the nucleotide donor sugar”. The “PTase activity assay, UDP-[3H]GlcNAc” value on Dm PTase is “Dm PTase is capable of using UDP-GlcNAc as a nucleotide sugar donor”.

Regarding `OC[C@H]1O[C@H](O[C@@H]2C(O)O[C@H](CO)[C@@H](O)[C@@H]2O)[C@@H](O)[C@@H](O)[C@@H]1O` (stereo partly drawn) [mannobiose, 2-α-mannobiose], on S1S3 [3], the Km is 53.6 mM.

In the case of `CO[C@H]1O[C@H](CO)[C@@H](O)[C@H](O)[C@@H]1O` [α-MM, methyl α-D-mannopyranoside], the “PTase activity assay, UDP-[3H]GlcNAc” value at S1S3 [1] (100 mM α-MM) is on record as “The His-279-Phe mutation caused a significant decrease in activity toward the three acceptors”.

“soluble S1S3, truncated hyperactive variant of human GlcNAc-1-phosphotransferase (PTase) αβ lacking both transmembrane domains and cytosolic tails (enzyme)” displayed a stoichiometry N in series [4] of 2.

B1: hPTase-αβ (soluble full-length human GlcNAc-1-phosphotransferase) (Homo sapiens) (protein)
chain 1: T2 sequence (Q3T906 44-928 limits assumed)
chain 2: T2 sequence (Q3T906 929-1214 limits assumed)
notes: soluble secreted form of the alpha/beta precursor, cut by site-1 protease at K928/D929; no gamma subunit; dimer
For B1, in series [5], the Km is on record as 57,100 μM and the kcat amounted to 0.153 s⁻¹.

Broadly, the Km is the substrate concentration at which the rate is half of its maximum. What is called stoichiometry N is a count of units in the complex or per binding partner. The term kcat denotes the maximal rate divided by the concentration of active sites.

The record behind these values is PMC11418123, “Structure of a truncated human GlcNAc-1-phosphotransferase variant reveals the basis for its hyperactivity” (The Journal of Biological Chemistry, 2024).
